From patent US7875599B2, “C-17-heteroaryl steroidal CYP17 inhibitors/antiandrogens, in vitro biological activities, pharmacokinetics and antitumor activity” (University of Maryland, priority 2005, dated 2011)
pIC50: −log10 of the molar value. Read-outs that look alike come from different tables or passages of the source.

Legend:
CYP17 [1] = target: T1, CYP17 (Homo sapiens, UniProt P05093); test: CYP17 inhibition, acetic acid releasing assay with intact P450c17-expressing E. coli
T1 sequence (P05093 1-508): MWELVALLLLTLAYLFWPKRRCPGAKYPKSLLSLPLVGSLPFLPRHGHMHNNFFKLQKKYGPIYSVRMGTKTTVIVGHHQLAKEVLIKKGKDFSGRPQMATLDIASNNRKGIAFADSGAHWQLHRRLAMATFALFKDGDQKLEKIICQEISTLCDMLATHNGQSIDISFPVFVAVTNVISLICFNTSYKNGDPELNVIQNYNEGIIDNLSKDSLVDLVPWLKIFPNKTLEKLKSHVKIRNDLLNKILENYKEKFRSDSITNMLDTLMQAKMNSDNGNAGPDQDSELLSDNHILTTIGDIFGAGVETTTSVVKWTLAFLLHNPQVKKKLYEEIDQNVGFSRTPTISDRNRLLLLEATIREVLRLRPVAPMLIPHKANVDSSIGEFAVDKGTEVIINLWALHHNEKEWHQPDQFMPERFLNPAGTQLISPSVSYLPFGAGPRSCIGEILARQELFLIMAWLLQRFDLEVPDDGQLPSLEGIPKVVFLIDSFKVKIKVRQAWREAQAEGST

[2] = test system: LNCaP mutant AR-mediated transcription; test: Luciferase transactivation assay in LNCaP cells transfected with ARR2-Luc; details: 18 h
Protocol: Luciferase Transactivation Assay: Transcriptional activation assay is carried out as described previously by Kim et al., above, with minor modifications. […] The pRL-null (Promega) is used as the internal control. […] Luciferase activities are measured in triplicates by using dual luciferase assay system according to the manufacturer's instruction (Promega).
The bars represent the mean light units [counts per second (cps)/unit protein, i.e., relative luciferase activity] in triplicate wells from three separate experiments.

LAPC4 cells = test: LAPC4 cell growth, WST-1 viability assay
Protocol: (§1) To determine the effect of novel compounds on cell proliferation, cells are transferred into steroid-free medium three days prior to the start of the experiments. Steroid-free medium consisted of phenol red free RPMI supplemented with 5% dextran-coated, charcoal treated serum, and 1% penicillin/streptomycin solution. Growth studies are then performed by plating cells (3×10^4) in 24-well multi-well dishes (Corning, Inc. Corning, N.Y.). After a 24 hours attachment period, the medium is aspirated and replaced with steroid-free medium containing vehicle or the indicated concentration of DHT (1 nM) and compounds (0.1 μM-10 μM). Control wells are treated with vehicle (ethanol). This medium is changed every three days and the number of viable cells is compared by WST-1 [4-[3-(4-iodophenyl)-2-(4-nitrophenyl)-2H-5-tetrazolio]-1,3-benzene disulfonate] assay on the seventh day. Following incubation of cells for the above-mentioned time, 10% WST-1 solution is added to each well and incubated at 37° C. for three hours. Following incubation, plates are slightly shaken and immediately read at 450 nm with a scanning multi-well spectrophotometer. All results represent the average of a minimum of three wells. Additional control consists of medium alone with no cells.
(§2) Cells were grown in steroid-free medium before plating.

LNCaP cells = test: LNCaP cell growth, WST-1 viability assay
Protocol: as §1, §2

CYP17 [3] = target: T1, CYP17; test: UV-vis difference spectroscopy, binding to heme iron of CYP17; parameters: peak position of Soret maximum of the enzyme complex: unit not given here
[4] = target: T2, human 5α-reductase type 2 (Homo sapiens, UniProt P31213); test: Human 5α-reductase type 2 assay (BPH tissue homogenate); details: for inhibition at 10 µM: read-out: 5α-Reductase type 2 % inhibition at 10 μM
T2 sequence (P31213 1-254): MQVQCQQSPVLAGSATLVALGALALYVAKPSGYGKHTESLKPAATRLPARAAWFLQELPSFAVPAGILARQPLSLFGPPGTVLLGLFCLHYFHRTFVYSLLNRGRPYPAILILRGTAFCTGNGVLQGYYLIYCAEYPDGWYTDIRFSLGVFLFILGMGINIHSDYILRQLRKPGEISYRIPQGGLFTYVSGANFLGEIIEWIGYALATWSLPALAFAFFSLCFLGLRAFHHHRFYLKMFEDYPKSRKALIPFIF

[5] = target: T3, human 5α-reductase type 1 (Homo sapiens, UniProt P18405); test: Human 5α-reductase type 1 assay (DU-145 cell line)
T3 sequence (P18405 1-259): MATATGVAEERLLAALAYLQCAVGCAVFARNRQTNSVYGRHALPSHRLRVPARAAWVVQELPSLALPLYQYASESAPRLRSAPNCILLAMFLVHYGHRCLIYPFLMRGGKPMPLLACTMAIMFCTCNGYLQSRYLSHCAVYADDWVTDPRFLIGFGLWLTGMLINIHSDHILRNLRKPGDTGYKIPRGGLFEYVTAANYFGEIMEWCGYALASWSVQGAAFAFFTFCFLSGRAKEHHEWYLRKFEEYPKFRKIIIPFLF

[6] = test system: LAPC4 human prostate tumor xenograft; test: LAPC4 xenograft, second experiment (treatment from day after inoculation); assay type: in vivo, mouse
Source text: The second in vivo experiment tests the ability of 5 to inhibit the growth of LAPC4 prostate cancer cells growing in SCID mice, and 16 (Chart 1), a previously identified potent CYP17 inhibitor/antiandrogen (Gregoriyev et al. and Njar et al., J. Med. Chem., 1998, 41, 902-912, above) and castration are used as reference treatments. In this experiment, treatment begins on the day that mice were inoculated subcutaneously with hormone-dependent LAPC4 cells and are castrated or injected sc twice daily with 5 or 16.
In Vivo Antitumor Studies (LAPC-4 Prostate Cancer Xenografts): All animal studies are performed according to the guidelines and approval of the Animal Care Committee of the University of Maryland School of Medicine, Baltimore. Male severe combined immunodeficient (SCID) mice 4-6 weeks of age purchased from the National Cancer Institute-Frederick Cancer Research and Development Center (Fredrick, Md.) are housed in a pathogen-free environment under controlled conditions of light and humidity and allowed free access to food and water. Tumors are developed from LAPC4 cells inoculated subcutaneously (s.c.) in the mice essentially as previously described (21). LAPC4 cells are grown in IMEM with 15% FBS plus 1% PS and 10 nm DHT until 80% confluent. Cells are scraped into DPBS, collected by centrifugation, and resuspended in Matrigel (10 mg/ml) at 3×10^7 cells/ml. Mice are injected s.c. with 100 μl of the cell suspension at one site on each flank. Tumors are measured weekly with calipers, and tumor volumes are calculated by the formula: […]).
In the second experiment, mice are inoculated with LAPC4 cells and are divided into four groups of 5 mice each. The control and castrated group receiv vehicle, while the other two groups receiv either VN/85-1 (0.15 mmol/kg twice-daily, 9 a.m. and 5 p.m.) or 5 (0.15 mmol/kg twice-daily, 9 a.m. and 5 p.m.). These treatments are initiated one day after LAPC4 cell inoculation; continued for 14 weeks for control group, 19 weeks (for VN/85-1 and castration groups) and for 21 weeks for 5 treated group and tumors are measured and processed as described above.
FIG. 7: The effects of 5, 16, and orchidectomy on the formation and growth of LAPC4 prostate tumors in male SCID mice. 3×10^7 LAPC-4 cells were injected s.c. into the dorsal flank of SCID mice. One group of mice was castrated. The other groups of mice received either vehicle or 5 (0.15 mmol/kg twice-daily) or 16 (0.15 mmol/kg twice-daily). Daily treatment with 5 or 16 was initiated 1 day after cell inoculation. Tumors volumes were measured weekly, and the percentage of change in tumor volume was determined after 16 weeks of treatment * Indicates significant difference of 5 versus control, castration and 16 at week 14 (P 0.00065, 0.05 and 0.0097, respectively). ** Indicates significant difference of 5 versus castration and 16 at week 16 (P=0.047 and 0.0047, respectively). ↓-↓↓: Period of reduced administered dose of 5.

[7] = read-out: CYP17 IC50, intact P450c17-expressing E. coli, substrate [21-3H]-17α-hydroxypregnenolone

C[C@]12CC[C@H](O)CC1=CC[C@@H]1[C@@H]2CC[C@]2(C)C(c3cccnc3)=CC[C@@H]12 [Abiraterone, reference compound]
pIC50 (CYP17 [1]): 6.10

CC(O)(CS(=O)(=O)c1ccc(F)cc1)C(=O)Nc1ccc(C#N)c(C(F)(F)F)c1 (stereo not shown) [Casodex]
effect on luciferase activity, compound alone ([2]; 0.1 and 10.0 μM, without DHT): no effect | effect on luciferase expression induced by 1.0 nM DHT ([2]; with 1.0 nM DHT): decreased in a concentration-dependent manner | pIC50 (LAPC4 cells; Homo sapiens, LAPC4, 168 h, read-out: IC50, inhibition of LAPC4 cell proliferation, 10 nM DHT, 7 days, WST-1): 5.00 | pIC50 (LNCaP cells; Homo sapiens, LNCaP, 168 h, read-out: IC50, inhibition of DHT-induced LNCaP cell proliferation, 1 nM DHT, 7 days, WST-1): 5.07

C[C@]12CC[C@H](O)CC1=CCC1C2CC[C@]2(C)C(n3nnc4ccccc43)=CCC12 (stereo partly drawn) [Compound 9, 3β-Hydroxy-17-(benzo-1H-1,2,3-triazol-1-yl)androsta-5,16-diene]
peak position of Soret maximum of the enzyme complex (CYP17 [3]): 426 | type of difference spectrum induced (CYP17 [3]): type II difference spectrum | pIC50 (CYP17 [1]; [7]): 5.90 | melting point: 241 to 244 °C | inhibition at 10 µM [4]: 17% | 5α-Reductase type 1 % inhibition at 10 μM ([5]; 10 μM, DU-145 cells, substrate 5 nM [1β-3H]androstenedione): ni^f

C[C@]12CCC(=O)C=C1CCC1C2CC[C@]2(C)C(n3nnc4ccccc43)=CCC12 (stereo partly shown) [Compound 10, 17-(benzo-1H-1,2,3-triazol-1-yl)androsta-4,16-diene-3-one]
pIC50 (CYP17 [1]; [7]): 5.24 | melting point: 280 to 283 °C | inhibition at 10 µM [4]: 56% | inhibition at 10 µM ([5]; read-out: 5α-Reductase type 1 % inhibition at 10 μM): 21%

C[C@]12CC[C@H](O)CC1=CCC1C2CC[C@]2(C)C(c3cnccn3)=CCC12 (stereo partly drawn) [Compound 14, 3β-Hydroxy-17-(2-pyrazyl)-androsta-5,16-diene]
pIC50 (CYP17 [1]; [7]): 5.42

C[C@]12CC[C@H](O)CC1=CC[C@@H]1[C@@H]2CC[C@]2(C)C(c3cncnc3)=CC[C@@H]12 [Compound 15, 3β-Hydroxy-17-(5-pyrimidyl)-androsta-5,16-diene]
pIC50 (CYP17 [1]): 6.30 | melting point: 231 to 233 °C

C[C@]12CCC(=O)C[C@@H]1CC[C@@H]1[C@@H]2CC[C@]2(C)[C@@H](O)CC[C@@H]12 [DHT, dihydrotestosterone]
increase of luciferase expression ([2]; 1.0 nM): approximately 99.6 fold | induction of LAPC4 cell proliferation (LAPC4 cells; 10 nM): does not significantly induce cell proliferation | stimulation of LNCaP cell proliferation compared to vehicle-treated cells (LNCaP cells; 1 nM): about 2 fold

CC(C)(C)NC(=O)[C@H]1CC[C@H]2[C@@H]3CC[C@H]4NC(=O)C=C[C@]4(C)[C@H]3CC[C@]12C [Finasteride, reference compound]
pIC50 ([4]; read-out: 5α-Reductase type 2 [IC50], BPH tissue enzyme, values in square brackets): 8.70 | pIC50 ([5]; read-out: 5α-Reductase type 1 [IC50], DU-145 cells, values in square brackets): 7.22

C[C@]12CC[C@H](O)CC1=CC[C@@H]1[C@@H]2CC[C@]2(C)C(n3ccnc3)=CC[C@@H]12 [VN/85-1, 3β-hydroxy-17-(1H-imidazole-1-yl)androsta-5,16-diene]
times more potent than 5 in CYP17 inhibition (CYP17 [1]): 6 times | pIC50 (CYP17 [1]; [7]): 7.30 | week of therapy at which palpable and measurable tumors develop ([6]; 0.15 mmol/kg twice-daily): 11 week | increase of tumor volume ([6]; 0.15 mmol/kg twice-daily s.c., week 14): 3.7 fold | reduction of tumor volume versus control mice ([6]; 0.15 mmol/kg twice-daily s.c., week 14 (b4 prints 50 mg/kg/twice daily)): 53.8%
